{"source": "patent US12005092B2", "about": "“Herbal composition for breast cancer prevention” (priority 2021, dated 2024)", "tested_on": "MCF-7 cells", "test": "MCF-7 cell viability, PrestoBlue Cell Viability Reagent", "assay_type": "cell-based, human", "conditions": "individual ingredients, MCF-7, 2 mg/0.2 ml", "experimental": "In order to assess this activity, a well-established line of breast cancer cells used in cancer research was selected. MCF-7 is a widely studied cancer cell line derived from breast adenocarcinoma, it was proven to be a suitable model cell line for breast cancer investigations worldwide, including those regarding anticancer drugs.\nThe cells were cultured with growth medium and seeded in two 96 well plates incubated at 37 Celsius. The HCBCP solution was prepared by dissolving the powder in DPBS as per Table 1, below.\nThe obtained solutions were sterilized by 0.22-micron filtration.\nAn amount of 0.2 ml was applied in each test tube providing 2 mg of HCBCP. […]\nAfter incubation period of 24 and 48 hours, cell viability was measured using PrestoBlue™ Cell Viability Reagent, according to manufacturer instructions.\nFluorescence was detected at excitation wavelength of 560 nm and an emission of 590 nm, using TECAN SPARK 10M microplate reader, at 24 and 48 hours after application. The fluorescence data is expressed as percentage of cell viability (%) compared to vehicle control.\nPercentage of cell viability was calculated using the following formula: [(fluorescence of treated cells—mean background fluorescence)/(fluorescence of cells with vehicle control—mean background fluorescence)]×100, at 24 and 48 Hours after Application. […]", "note": "“And” between values parts separate entries of the source, which are not always exact repeats. Equal entries are not always repeated.", "data": [{"smiles": "O=c1c(O)c(-c2ccc(O)c(O)c2)oc2cc(O)cc(O)c12", "note": "[BF 2 Q, Quercetin]", "values": [{"measurement": "Mean cell viability (%)", "setting": "24 h (Table 3)", "value": 42.10, "unit": "%"}, {"measurement": "Cell Viability (%)", "setting": "24 h, single replicates (Table 3)", "value": "44.43% and 44.39% and 40.25% and 39.33%"}]}]}
